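Protocol summary: plate cells (96-well), add compound at 5 concentrations, incubate 48 h, interpolate endpoints linearly. GI50 is the concentration that inhibits growth by half.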 Calls of active or inactive are those of the source. Rule as the data show it: active = GI50 up to about 1.1 µM and inactive = higher.
What was measured:
Experiment in all cases: DTP human tumour cell line panel, 48 h
NCI-H23 = tested on: NCI-H23
SK-MEL-2 = tested on: SK-MEL-2
786-0 = tested on: 786-0
MDA-MB-231 = tested on: MDA-MB-231
HCT-15 = tested on: HCT-15
SNB-19 = tested on: SNB-19
TK-10 = tested on: TK-10
SK-MEL-28 = tested on: SK-MEL-28
ACHN = tested on: ACHN
M14 = tested on: M14
LOX IMVI = tested on: LOX IMVI
NCI-H522 = tested on: NCI-H522
SR = tested on: SR
DU-145 = tested on: DU-145
SF-268 = tested on: SF-268
SF-539 = tested on: SF-539
HCC 2998 = tested on: HCC 2998
MDA-MB-435 = tested on: MDA-MB-435
UACC-257 = tested on: UACC-257
HL-60 = tested on: HL-60

Compound	GI50 (NCI-H23)	GI50 (SK-MEL-2)	GI50 (786-0)	GI50 (MDA-MB-231)	GI50 (HCT-15)	GI50 (SNB-19)	GI50 (TK-10)	GI50 (SK-MEL-28)	GI50 (ACHN)	GI50 (M14)	GI50 (LOX IMVI)	GI50 (NCI-H522)	GI50 (SR)	GI50 (DU-145)	GI50 (SF-268)	GI50 (SF-539)	GI50 (HCC 2998)	GI50 (MDA-MB-435)	GI50 (UACC-257)	GI50 (HL-60)
Cc1c2c(n(Cc3ccccn3)c1C)NN=C(C#N)S2(=O)=O	> 100 µM (inactive)	> 100 µM (inactive)	> 100 µM (inactive)	> 100 µM (inactive)	> 100 µM	> 100 µM (inactive)	> 100 µM (inactive)	> 100 µM (inactive)	> 100 µM (inactive)	> 100 µM (inactive)	> 100 µM (inactive)	> 100 µM (inactive)	> 100 µM (inactive)	> 100 µM (inactive)	> 100 µM (inactive)	> 100 µM (inactive)	> 100 µM (inactive)	> 100 µM (inactive)	> 100 µM (inactive)	–
O=[N+]([O-])c1cc(Cl)ccc1S(=O)(=O)c1cc(Cl)cc2c1NCCC2	–	> 100 µM (inactive)	> 100 µM (inactive)	> 100 µM (inactive)	60.7 µM	> 100 µM (inactive)	> 100 µM (inactive)	35.8 µM (inactive)	40.9 µM (inactive)	53 µM (inactive)	58.5 µM (inactive)	–	53.5 µM (inactive)	> 100 µM (inactive)	82.4 µM (inactive)	> 100 µM (inactive)	> 100 µM (inactive)	39.6 µM (inactive)	22.4 µM (inactive)	98.4 µM (inactive)
Cc1cc(/N=C/c2ccc(F)cc2)n(-c2ccccc2)n1	82.2 µM (inactive)	> 100 µM (inactive)	> 100 µM (inactive)	> 100 µM (inactive)	48.2 µM	> 100 µM (inactive)	57 µM (inactive)	> 100 µM (inactive)	> 100 µM (inactive)	> 100 µM (inactive)	> 100 µM (inactive)	39.1 µM (inactive)	35.4 µM (inactive)	> 100 µM (inactive)	> 100 µM (inactive)	> 100 µM (inactive)	–	74.1 µM (inactive)	50.1 µM (inactive)	30.3 µM (inactive)
COC(=O)Nc1nc2ccccc2[nH]1 [CARBENDAZIM]	14.2 µM (inactive)	17.8 µM (inactive)	9.53 µM (inactive)	27.8 µM (inactive)	3.37 µM	10.1 µM (inactive)	> 49.2 µM (inactive)	16.2 µM (inactive)	> 56.1 µM (inactive)	4.69 µM (inactive)	8.73 µM (inactive)	–	7.33 µM (inactive)	5.18 µM (inactive)	> 51.3 µM (inactive)	5.2 µM (inactive)	5.37 µM (inactive)	2.34 µM (inactive)	> 61 µM (inactive)	4.26 µM (inactive)
O=C(CNc1cccc([N+](=O)[O-])c1)Nn1c(-c2ccccc2)nc2ccccc2c1=O	0.653 µM (active)	–	0.399 µM (active)	0.776 µM (active)	0.419 µM	2.11 µM (inactive)	0.363 µM (active)	0.513 µM (active)	1.4 µM (inactive)	–	0.221 µM (active)	0.433 µM (active)	0.271 µM (active)	2.38 µM (inactive)	1.69 µM (inactive)	1.97 µM (inactive)	1.49 µM (inactive)	2.02 µM (inactive)	2.15 µM (inactive)	0.422 µM (active)
COc1cc2nc3n(c(=O)c2cc1OC)CCCCC3	> 100 µM (inactive)	> 100 µM (inactive)	> 100 µM (inactive)	> 100 µM (inactive)	> 100 µM	–	> 100 µM (inactive)	> 100 µM (inactive)	> 100 µM (inactive)	> 100 µM (inactive)	> 100 µM (inactive)	> 100 µM (inactive)	> 100 µM (inactive)	> 100 µM (inactive)	> 100 µM (inactive)	> 10 µM (inactive)	–	> 100 µM (inactive)	> 100 µM (inactive)	> 100 µM (inactive)
Cc1c(/C=N\NC(=S)N(C)CCN(C)C(=S)N/N=C\c2c(C)n(C)n(-c3ccccc3)c2=O)c(=O)n(-c2ccccc2)n1C	> 100 µM (inactive)	> 100 µM (inactive)	> 100 µM (inactive)	> 100 µM (inactive)	> 100 µM	> 100 µM (inactive)	> 100 µM (inactive)	–	> 100 µM (inactive)	> 100 µM (inactive)	–	41.7 µM (inactive)	35.3 µM (inactive)	> 100 µM (inactive)	> 100 µM (inactive)	> 100 µM (inactive)	> 100 µM (inactive)	> 100 µM (inactive)	> 100 µM (inactive)	–
CCN1CCN=C2c3cc(OC)ccc3Nc3c([N+](=O)[O-])ccc1c32	1.35 µM (inactive)	–	0.512 µM (active)	0.736 µM (active)	1.21 µM	–	3.75 µM (inactive)	2.32 µM (inactive)	–	1 µM (active)	–	–	0.244 µM (active)	2.72 µM (inactive)	0.443 µM (active)	–	0.78 µM (active)	1.01 µM (active)	1.83 µM (inactive)	0.516 µM (active)
CC(NC(=O)CNP(=O)(c1ccccc1)c1ccccc1)C(=O)NC(Cc1ccccc1)C(=O)OCc1ccccc1 (stereo unspecified)	37.8 µM (inactive)	51.2 µM (inactive)	22.2 µM (inactive)	35.6 µM (inactive)	> 100 µM	51.2 µM (inactive)	> 100 µM (inactive)	23.8 µM (inactive)	–	49.7 µM (inactive)	26.7 µM (inactive)	19.6 µM (inactive)	24.9 µM (inactive)	> 100 µM (inactive)	21.6 µM (inactive)	62.2 µM (inactive)	–	50.2 µM (inactive)	> 100 µM (inactive)	28.6 µM (inactive)
Cc1cc(C)cc(C(=N)c2ccccc2Cc2cccc3ccccc23)c1	15.7 µM (inactive)	37.8 µM (inactive)	15.2 µM (inactive)	> 100 µM (inactive)	16.1 µM	19.5 µM (inactive)	25.6 µM (inactive)	16.9 µM (inactive)	16.6 µM (inactive)	16.5 µM (inactive)	18 µM (inactive)	7.28 µM (inactive)	14.2 µM (inactive)	16.2 µM (inactive)	15.9 µM (inactive)	16.1 µM (inactive)	–	17.2 µM (inactive)	22.2 µM (inactive)	13.3 µM (inactive)
CC(=O)[C@@H]1[C@@H](OC(=O)CCC(C)COC2OC(CO)C(O)C(O)C2O)C[C@H]2[C@@H]3CC=C4C[C@@H](OC5OC(CO)C(OC6OC(C)C(O)C(O)C6O)C(O)C5OC5OC(C)C(O)C(O)C5O)CC[C@]4(C)[C@H]3CC[C@]12C (stereo partly specified)	> 100 µM (inactive)	> 100 µM (inactive)	> 100 µM (inactive)	> 100 µM (inactive)	–	> 100 µM (inactive)	> 100 µM (inactive)	> 100 µM (inactive)	> 100 µM (inactive)	> 100 µM (inactive)	> 100 µM (inactive)	35.2 µM (inactive)	> 100 µM (inactive)	> 100 µM (inactive)	> 100 µM (inactive)	–	> 100 µM (inactive)	> 100 µM (inactive)	> 100 µM (inactive)	–

Reference: ChEMBL document CHEMBL1201862, “PubChem BioAssay data set” (2004)
